Source: US10392368B2, “Pyrazolo and triazolo bicyclic compounds as JAK kinase inhibitors” (THERAVANCE BIOPHARMA R&D IP, LLC, priority 2017, dated 2019)

Key:
[1] = test system: IL-2 stimulated pSTAT5 in Tall-1 T cells; assay: Cellular JAK3 potency assay: inhibition of IL-2 stimulated pSTAT5 in Tall-1 T cells; format: cell-based, human; settings: for Tall-1 (pIC50): IL-2 stimulated pSTAT5 in Tall-1 T cells; for IC50: Homo sapiens, TALL-1, IL-2 stimulated pSTAT5 in Tall-1 T cells, read-out: Tall-1 (pIC50) (converted)
In short: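 In human Tall-1 T cells, IL-2 (300 ng/ml final, 30 min) drives STAT5 phosphorylation after a 1 h compound pretreatment. Lysates are assayed for pSTAT5 by AlphaLisa, and IC50 derived from signal versus concentration is expressed as pIC50.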

Tyk2 = biological target: T1, Tyk2 (Homo sapiens, UniProt P29597); assay: Biochemical Tyk2 kinase assay (LanthaScreen); settings: for Ki: read-out: Tyk 2 (pKi) (converted)
T1 construct: GST; purchased Life Technologies
In short: (§1)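 Recombinant GST-tagged JAK enzymes with GFP-STAT1 peptide substrate in 50 mM HEPES pH 7.5, 10 mM MgCl2, 1 mM EGTA, 0.01% Brij-35; compounds pre-incubated 1 h, then ATP added, 1 h reaction at ambient temperature. TR-FRET (Tb-anti-pSTAT1 pTyr701, 520/495 nm) after EDTA stop; IC50 by 4-parameter fit, converted to pKi via Cheng-Prusoff.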

JAK1 = biological target: T2, JAK1 (Homo sapiens, UniProt P23458); assay: Biochemical JAK1 kinase assay (LanthaScreen); settings: for Ki: read-out: JAK 1 (pKi) (converted)
T2 construct: GST; purchased Life Technologies
In short: as §1

JAK2 = biological target: T3, JAK2 (Homo sapiens, UniProt O60674); assay: Biochemical JAK2 kinase assay (LanthaScreen); settings: for Ki: read-out: JAK 2 (pKi) (converted)
T3 construct: GST; purchased Life Technologies
In short: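 GST-tagged recombinant JAK2 pre-incubated 1 h at ambient temperature with compound and GFP-STAT1 peptide in HEPES pH 7.5/MgCl2 buffer, then ATP added for a 1 h reaction with 1% DMSO. TR-FRET read after EDTA and Tb-anti-pSTAT1 (pTyr701) addition; IC50 from 4-parameter fit, converted to pKi by Cheng-Prusoff.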

JAK3 = biological target: T4, JAK3 (Homo sapiens, UniProt P52333); assay: Biochemical JAK3 kinase assay (LanthaScreen); parameters: GST; purchased Life Technologies; settings: for JAK3 (pKi)-JAK1 (pKi): selectivity: difference of pKi JAK3 and pKi JAK1; for Ki: read-out: JAK 3 (pKi) (converted)
T4 sequence (P52333 1-1124): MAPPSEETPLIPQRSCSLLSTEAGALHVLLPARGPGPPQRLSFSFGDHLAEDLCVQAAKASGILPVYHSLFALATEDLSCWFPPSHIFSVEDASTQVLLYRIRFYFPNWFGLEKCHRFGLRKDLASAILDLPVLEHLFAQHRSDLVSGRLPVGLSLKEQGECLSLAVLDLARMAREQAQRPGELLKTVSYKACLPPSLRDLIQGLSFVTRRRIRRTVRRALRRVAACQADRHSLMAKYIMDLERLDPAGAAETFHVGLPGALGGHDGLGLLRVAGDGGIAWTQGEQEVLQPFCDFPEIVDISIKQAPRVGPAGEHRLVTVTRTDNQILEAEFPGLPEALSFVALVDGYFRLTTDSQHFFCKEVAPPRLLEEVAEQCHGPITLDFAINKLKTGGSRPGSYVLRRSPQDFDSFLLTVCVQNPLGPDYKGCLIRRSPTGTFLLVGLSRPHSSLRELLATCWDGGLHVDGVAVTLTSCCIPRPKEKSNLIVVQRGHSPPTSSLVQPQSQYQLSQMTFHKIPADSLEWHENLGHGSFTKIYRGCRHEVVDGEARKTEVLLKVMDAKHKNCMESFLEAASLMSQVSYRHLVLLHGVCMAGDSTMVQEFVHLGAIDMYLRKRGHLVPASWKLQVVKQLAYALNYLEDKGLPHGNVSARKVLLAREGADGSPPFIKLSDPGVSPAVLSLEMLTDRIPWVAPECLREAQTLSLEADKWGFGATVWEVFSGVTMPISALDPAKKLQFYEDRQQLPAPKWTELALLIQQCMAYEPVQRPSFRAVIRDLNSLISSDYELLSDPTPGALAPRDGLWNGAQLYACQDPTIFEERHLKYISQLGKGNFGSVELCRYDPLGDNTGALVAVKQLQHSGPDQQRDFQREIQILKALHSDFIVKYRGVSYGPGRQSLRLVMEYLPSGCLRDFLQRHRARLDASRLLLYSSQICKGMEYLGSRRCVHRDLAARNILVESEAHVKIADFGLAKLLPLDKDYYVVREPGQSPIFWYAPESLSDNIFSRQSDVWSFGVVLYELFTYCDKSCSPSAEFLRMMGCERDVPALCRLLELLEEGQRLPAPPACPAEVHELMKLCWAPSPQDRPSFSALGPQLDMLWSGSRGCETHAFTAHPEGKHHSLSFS
In short: as §1

T2 sequence (P23458 whole entry): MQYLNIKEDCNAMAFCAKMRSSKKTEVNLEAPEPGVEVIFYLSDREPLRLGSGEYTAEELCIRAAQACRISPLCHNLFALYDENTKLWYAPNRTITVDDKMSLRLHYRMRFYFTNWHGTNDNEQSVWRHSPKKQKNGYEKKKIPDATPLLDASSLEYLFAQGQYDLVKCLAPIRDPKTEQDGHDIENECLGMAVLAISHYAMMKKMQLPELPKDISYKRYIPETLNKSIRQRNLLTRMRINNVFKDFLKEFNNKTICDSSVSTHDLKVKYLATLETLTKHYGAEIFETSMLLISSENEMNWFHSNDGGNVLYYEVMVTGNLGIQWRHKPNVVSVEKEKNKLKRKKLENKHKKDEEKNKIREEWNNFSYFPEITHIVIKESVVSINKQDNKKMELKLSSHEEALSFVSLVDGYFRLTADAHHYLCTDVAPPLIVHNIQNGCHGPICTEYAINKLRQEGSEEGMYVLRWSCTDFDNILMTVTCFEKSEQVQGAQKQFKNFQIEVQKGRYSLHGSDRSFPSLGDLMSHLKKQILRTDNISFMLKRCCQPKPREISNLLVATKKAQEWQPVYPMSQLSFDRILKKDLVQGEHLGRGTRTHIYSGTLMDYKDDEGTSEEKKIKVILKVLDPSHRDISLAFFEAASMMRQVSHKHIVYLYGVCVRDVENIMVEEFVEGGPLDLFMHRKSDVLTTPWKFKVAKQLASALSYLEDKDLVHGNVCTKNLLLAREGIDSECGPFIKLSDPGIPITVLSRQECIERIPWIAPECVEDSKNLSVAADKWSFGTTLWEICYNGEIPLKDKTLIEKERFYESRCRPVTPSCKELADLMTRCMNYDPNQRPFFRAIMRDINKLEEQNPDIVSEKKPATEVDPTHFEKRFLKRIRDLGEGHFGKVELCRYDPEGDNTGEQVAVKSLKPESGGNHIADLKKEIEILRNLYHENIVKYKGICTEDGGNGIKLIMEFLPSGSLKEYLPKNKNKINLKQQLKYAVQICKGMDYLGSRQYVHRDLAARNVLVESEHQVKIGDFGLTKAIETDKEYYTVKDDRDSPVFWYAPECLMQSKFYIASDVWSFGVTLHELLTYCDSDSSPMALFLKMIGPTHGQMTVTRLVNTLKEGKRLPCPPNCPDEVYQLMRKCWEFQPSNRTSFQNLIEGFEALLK
T1 sequence (P29597 whole entry): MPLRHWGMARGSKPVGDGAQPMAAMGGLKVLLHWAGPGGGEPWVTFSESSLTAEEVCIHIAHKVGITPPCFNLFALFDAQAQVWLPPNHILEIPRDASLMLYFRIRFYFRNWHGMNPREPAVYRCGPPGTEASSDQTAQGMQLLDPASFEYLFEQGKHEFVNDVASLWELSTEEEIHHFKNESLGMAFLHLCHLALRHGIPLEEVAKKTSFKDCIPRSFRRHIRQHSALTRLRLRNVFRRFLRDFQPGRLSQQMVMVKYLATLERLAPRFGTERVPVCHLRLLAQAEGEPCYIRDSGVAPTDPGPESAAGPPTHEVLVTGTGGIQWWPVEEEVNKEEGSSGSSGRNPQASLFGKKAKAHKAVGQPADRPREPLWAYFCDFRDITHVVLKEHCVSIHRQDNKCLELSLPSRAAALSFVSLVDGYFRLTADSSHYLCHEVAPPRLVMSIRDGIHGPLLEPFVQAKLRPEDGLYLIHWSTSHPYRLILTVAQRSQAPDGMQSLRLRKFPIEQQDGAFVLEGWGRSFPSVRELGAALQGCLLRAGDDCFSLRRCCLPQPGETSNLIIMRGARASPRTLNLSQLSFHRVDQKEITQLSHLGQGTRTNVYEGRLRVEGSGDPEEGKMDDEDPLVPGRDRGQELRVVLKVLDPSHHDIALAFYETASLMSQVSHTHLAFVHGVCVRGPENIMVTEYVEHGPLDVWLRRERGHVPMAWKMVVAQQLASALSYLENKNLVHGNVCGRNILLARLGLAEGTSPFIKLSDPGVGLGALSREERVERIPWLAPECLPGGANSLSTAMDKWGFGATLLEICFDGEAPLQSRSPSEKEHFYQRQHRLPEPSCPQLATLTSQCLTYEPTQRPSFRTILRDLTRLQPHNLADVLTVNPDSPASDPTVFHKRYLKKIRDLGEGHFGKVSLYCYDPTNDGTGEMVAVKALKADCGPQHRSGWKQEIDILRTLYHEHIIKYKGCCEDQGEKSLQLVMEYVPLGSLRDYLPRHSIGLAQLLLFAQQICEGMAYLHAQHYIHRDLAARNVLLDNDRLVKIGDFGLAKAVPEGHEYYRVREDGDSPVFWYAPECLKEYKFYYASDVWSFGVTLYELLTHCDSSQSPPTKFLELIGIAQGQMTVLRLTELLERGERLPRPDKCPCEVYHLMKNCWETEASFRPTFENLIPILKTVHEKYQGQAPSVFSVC
T3 sequence (O60674 whole entry): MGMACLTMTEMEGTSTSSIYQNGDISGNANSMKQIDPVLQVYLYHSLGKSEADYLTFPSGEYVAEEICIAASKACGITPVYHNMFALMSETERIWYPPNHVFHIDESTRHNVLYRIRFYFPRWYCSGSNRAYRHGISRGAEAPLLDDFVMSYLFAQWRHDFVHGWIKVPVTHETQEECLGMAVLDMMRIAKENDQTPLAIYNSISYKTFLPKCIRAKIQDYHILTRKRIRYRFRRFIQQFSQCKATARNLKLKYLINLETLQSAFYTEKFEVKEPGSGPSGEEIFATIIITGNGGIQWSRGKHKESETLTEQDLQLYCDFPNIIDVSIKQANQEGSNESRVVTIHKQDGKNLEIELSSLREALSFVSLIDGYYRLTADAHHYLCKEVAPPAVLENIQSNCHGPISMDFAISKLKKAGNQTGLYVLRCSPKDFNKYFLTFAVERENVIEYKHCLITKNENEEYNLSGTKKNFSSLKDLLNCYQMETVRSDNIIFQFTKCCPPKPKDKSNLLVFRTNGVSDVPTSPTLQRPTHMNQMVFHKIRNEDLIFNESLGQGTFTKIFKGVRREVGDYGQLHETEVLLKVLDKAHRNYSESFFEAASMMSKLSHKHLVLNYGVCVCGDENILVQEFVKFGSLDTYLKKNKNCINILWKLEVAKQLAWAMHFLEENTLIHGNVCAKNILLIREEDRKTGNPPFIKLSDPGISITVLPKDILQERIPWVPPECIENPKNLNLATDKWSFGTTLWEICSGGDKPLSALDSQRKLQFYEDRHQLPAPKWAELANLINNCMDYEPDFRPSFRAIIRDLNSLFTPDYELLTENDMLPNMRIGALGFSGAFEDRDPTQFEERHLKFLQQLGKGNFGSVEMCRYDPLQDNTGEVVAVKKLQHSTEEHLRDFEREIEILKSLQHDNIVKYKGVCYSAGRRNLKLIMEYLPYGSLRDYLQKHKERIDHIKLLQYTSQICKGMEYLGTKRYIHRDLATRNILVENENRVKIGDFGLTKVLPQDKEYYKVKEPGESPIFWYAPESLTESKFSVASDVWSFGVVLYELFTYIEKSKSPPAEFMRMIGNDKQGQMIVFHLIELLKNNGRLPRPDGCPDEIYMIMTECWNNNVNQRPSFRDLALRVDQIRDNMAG

SMILES | Tall-1 (pIC50) [1] | Tyk 2 (pKi) (Tyk2) | JAK 1 (pKi) (JAK1) | JAK 2 (pKi) (JAK2) | JAK 3 (pKi) (JAK3) | JAK3 (pKi)-JAK1 (pKi) (JAK3) | IC50 [1] [nM] | Ki (Tyk2) [nM] | Ki (JAK1) [nM] | Ki (JAK2) [nM] | Ki (JAK3) [nM]
C=CC(=O)N1CC(C#N)(COc2cc(-c3ccc(O)c(F)c3)cc3[nH]ncc23)C1 [Compound 3-23] | B (a pIC50 value between 6.7 (included) and 7.5 (IC50 between 200 nM and 32 nM)) | E (a pKi value of 7 or below (Ki of 100 nM or above)) | E (a pKi value of 7 or below (Ki of 100 nM or above)) | D (a pKi value between 7 and 8 (Ki between 100 nM and 10 nM)) | A (a pKi value≥10 (Ki≤0.1 nM)) | A (a value of 3 or above) | – | – | – | – | –
CN(C)C/C=C/C(=O)N1CC(C(C)(C)Oc2cc(-c3ccc(O)cc3)cc3[nH]ncc23)C1 [Compound 3-24] | B (a pIC50 value between 6.7 (included) and 7.5 (IC50 between 200 nM and 32 nM)) | E (a pKi value of 7 or below (Ki of 100 nM or above)) | E (a pKi value of 7 or below (Ki of 100 nM or above)) | E (a pKi value of 7 or below (Ki of 100 nM or above)) | B (a pKi value between 9 and 10 (Ki between 1 nM and 0.1 nM)) | A (a value of 3 or above) | – | – | – | – | –
CN(C)C/C=C/C(=O)N1CC(C(C)(C)Oc2cc(-c3ccc(O)c(F)c3)cc3[nH]ncc23)C1 [Compound 3-27] | – | – | – | – | – | A (a value of 3 or above) | 31.6 to 200 | > 100 | > 100 | > 100 | < 0.1
CC1C(COc2cc(-c3ccc(O)cc3)cc3[nH]ncc23)CN1C(=O)/C=C/CN(C)C (stereo not drawn) [Compound 3-30] | B (a pIC50 value between 6.7 (included) and 7.5 (IC50 between 200 nM and 32 nM)) | E (a pKi value of 7 or below (Ki of 100 nM or above)) | E (a pKi value of 7 or below (Ki of 100 nM or above)) | D (a pKi value between 7 and 8 (Ki between 100 nM and 10 nM)) | A (a pKi value≥10 (Ki≤0.1 nM)) | A (a value of 3 or above) | – | – | – | – | –
C=CC(=O)N1CC(COc2nc(-c3ccc(O)cc3)nc3[nH]ncc23)C1C (stereo not drawn) [Compound 3-31] | B (a pIC50 value between 6.7 (included) and 7.5 (IC50 between 200 nM and 32 nM)) | E (a pKi value of 7 or below (Ki of 100 nM or above)) | E (a pKi value of 7 or below (Ki of 100 nM or above)) | E (a pKi value of 7 or below (Ki of 100 nM or above)) | A (a pKi value≥10 (Ki≤0.1 nM)) | A (a value of 3 or above) | – | – | – | – | –
COC1(COc2cc(-c3ccc(O)cc3)cc3[nH]ncc23)CN(C(=O)/C=C/CN(C)C)C1 [Compound 3-32] | – | – | – | – | – | A (a value of 3 or above) | < 31.6 | > 100 | > 100 | > 100 | 0.1 to 1
C=CC(=O)N1CC(COc2cc(-c3ccc(O)cc3)cc3[nH]ncc23)(OC)C1 [Compound 3-33] | B (a pIC50 value between 6.7 (included) and 7.5 (IC50 between 200 nM and 32 nM)) | E (a pKi value of 7 or below (Ki of 100 nM or above)) | E (a pKi value of 7 or below (Ki of 100 nM or above)) | E (a pKi value of 7 or below (Ki of 100 nM or above)) | B (a pKi value between 9 and 10 (Ki between 1 nM and 0.1 nM)) | B (a value of 2.3 to 3) | – | – | – | – | –
C=CC(=O)N1CC(COc2nc(-c3ccc(O)c(Cl)c3)cc3[nH]ncc23)C1 [Compound 3-35] | – | – | – | – | – | A (a value of 3 or above) | < 31.6 | > 100 | > 100 | > 100 | 0.1 to 1
CN(C)C/C=C/C(=O)N1CC(COc2nc(-c3ccc(O)c(F)c3)cc3[nH]ncc23)C1 [Compound 3-36] | – | – | – | – | – | A (a value of 3 or above) | 31.6 to 200 | > 100 | > 100 | > 100 | < 0.1
C=CC(=O)N1CC(COc2nc(-c3ccc(O)c(F)c3)cc3[nH]ncc23)C1 [Compound 3-37] | – | – | – | – | – | A (a value of 3 or above) | < 31.6 | > 100 | > 100 | 10 to 100 | < 0.1
C=CC(=O)N1CC(COc2nc(-c3ccc(O)c(Cl)c3)nc3[nH]ncc23)C1 [Compound 3-38] | – | – | – | – | – | A (a value of 3 or above) | 31.6 to 200 | > 100 | > 100 | > 100 | < 0.1
C=CC(=O)N1CC(COc2nc(-c3ccc(O)c(F)c3)nc3[nH]ncc23)C1 [Compound 3-39] | – | – | – | – | – | A (a value of 3 or above) | 31.6 to 200 | > 100 | > 100 | > 100 | < 0.1
CN(C)C/C=C/C(=O)N1CC(F)(COc2cc(-c3ccc(O)c(F)c3)cc3[nH]ncc23)C1 [Compound 3-40] | – | – | – | – | – | A (a value of 3 or above) | < 31.6 | > 100 | 0.1 to 1 | 10 to 100 | < 0.1
C=CC(=O)N1CC(F)(COc2cc(-c3ccc(O)c(F)c3)cc3[nH]ncc23)C1 [Compound 3-41] | – | – | – | – | – | B (a value of 2.3 to 3) | < 31.6 | > 100 | 0.1 to 1 | 1 to 10 | 0.1 to 1
CN(C)C/C=C/C(=O)N1CC(F)(COc2cc(-c3ccc(O)c(Cl)c3)cc3[nH]ncc23)C1 [Compound 3-42] | – | – | – | – | – | B (a value of 2.3 to 3) | < 31.6 | > 100 | 0.1 to 1 | 10 to 100 | 0.1 to 1
C=CC(=O)N1CC(F)(COc2cc(-c3ccc(O)c(Cl)c3)cc3[nH]ncc23)C1 [Compound 3-43] | A (a pIC50 value≥7.5 (IC50≤32 nM)) | E (a pKi value of 7 or below (Ki of 100 nM or above)) | E (a pKi value of 7 or below (Ki of 100 nM or above)) | D (a pKi value between 7 and 8 (Ki between 100 nM and 10 nM)) | B (a pKi value between 9 and 10 (Ki between 1 nM and 0.1 nM)) | A (a value of 3 or above) | – | – | – | – | –
CN(C)C/C=C/C(=O)N1CC(F)(COc2nc(-c3ccc(O)cc3)cc3[nH]ncc23)C1 [Compound 3-44] | A (a pIC50 value≥7.5 (IC50≤32 nM)) | E (a pKi value of 7 or below (Ki of 100 nM or above)) | D (a pKi value between 7 and 8 (Ki between 100 nM and 10 nM)) | D (a pKi value between 7 and 8 (Ki between 100 nM and 10 nM)) | B (a pKi value between 9 and 10 (Ki between 1 nM and 0.1 nM)) | B (a value of 2.3 to 3) | – | – | – | – | –
C=CC(=O)N1CC(F)(COc2nc(-c3ccc(O)cc3)nc3[nH]ncc23)C1 [Compound 3-45] | – | – | – | – | – | A (a value of 3 or above) | < 31.6 | > 100 | > 100 | > 100 | 0.1 to 1
C=CC(=O)N1CC(F)(COc2cc(-c3ccc(O)cc3)nc3[nH]ncc23)C1 [Compound 3-46] | – | – | – | – | – | A (a value of 3 or above) | < 31.6 | > 100 | > 100 | > 100 | < 0.1
